Data reported in patent US20100215782A1, “NOVEL MITOCHONDRIAL UNCOUPLING METHODS AND COMPOSITIONS FOR ENHANCING ADIPOCYTE THERMOGENESIS” (METAPROTEOMICS, LLC, priority 2008, published 2010).

How the values were obtained:
[1] = system: 3T3-L1 adipocytes; test: JC-1 mitochondrial membrane potential (uncoupling) assay in 3T3-L1 adipocytes; assay type: cell-based, murine; conditions: for Monomer/Aggregate Ratio: 3T3-L1 adipocytes, test material 25 μg/mL, JC-1 fluorescence relative to JC-1 negative control, values >1.06 significant (p<0.05)
Description: Objective—The objective of this experiment was to observe the dose-response effect of the mitochondrial uncoupler DNP on mitochondrial membrane potential in 3T3-L1 adipocytes using the lipophilic cationic dye, 5,5′,6,6′-tetrachloro-1,1′,3,3′-tetraethylbenzimidazolylcarbocyanine iodide (JC-1).
The Model—The 3T3-L1 murine fibroblast model is commonly used to study the potential effects of compounds on white adipose tissue in vitro. This cell line allows investigation of stimuli and mechanisms that regulate inflammatory mediators of cytokine secretion of the adipocyte. As preadipocytes, 3T3-L1 cells have a fibroblastic appearance. They replicate in culture until they form a confluent monolayer, after which cell-cell contact triggers Go/G1 growth arrest. Terminal differentiation of 3T3-L1 cells to adipocytes depends on proliferation of both pre- and post-confluent preadipocytes. Subsequent stimulation with 3-isobutyl-1-methylxanthane, dexamethasone, and high does of insulin (MDI) for two days prompts these cells to undergo post-confluent mitotic clonal expansion, exit the cell cycle, and begin to express adipocyte-specific genes. Approximately five days after induction of differentiation, more than 90% of the cells display the characteristic lipid-filled adipocyte phenotype. At this stage of differentiation, response to mitochondrial uncouplers such as DNP may be assessed.
Cell culture and Treatment—The murine fibroblast cell line 3T3-L1 was purchased from the American Type Culture Collection (Manassas, Va.) and sub-cultured according to instructions from the supplier. Prior to experiments, cells were cultured in DMEM containing 10% FBS-HI added 50 units penicillin/ml and 50 μg streptomycin/ml, and maintained in log phase prior to experimental setup. Cells were grown in a 5% CO2 humidified incubator at 37° C. Components of the pre-confluent medium included: (1) 10% FBS/DMEM (Fetal Bovine Serum/Dulbecco's Modified Eagle's Medium) containing 4.5 g glucose/L; (2) 50 U/ml penicillin; and (3) 50 μg/ml streptomycin. Growth medium was made by adding 50 ml of heat inactivated FBS and 5 ml of penicillin/streptomycin to 500 ml DMEM. This medium was stored at 4° C. Before use, the medium was warmed to 37° C. in a water bath.
[…] cells were seeded at an initial density of 6×10^4 cells/cm^2 in 24-well plates. For two days, the cells were allowed grow to reach confluence. Following confluence, the cells were forced to differentiate into adipocytes by the addition of differentiation medium; this medium consisted of (1) 10% FBS/DMEM (high glucose); (2) 0.5 mM methylisobutylxanthine; (3) 0.5 μM dexamethasone and (4) 10 μg/ml insulin (MDI medium). After three days, the medium was changed to post-differentiation medium consisting of 10 μg/ml insulin in 10% FBS/DMEM.
Treatment with Test Material 2,4-Dinitrophenol—On Day 6 post differentiation, DNP was dissolved in dimethyl sulfoxide (DMSO) and added to the culture medium to achieve concentrations of 500, 100, 50, 10 or 5 μM per column for 60 min at 37° C. JC-1 was then added to the test and negative control columns in 10 μL DMSO to achieve a final concentration of 5 μM and allowed to incubate at 37° C. for an additional 30 min. A DMSO and solvent plus JC-1 control were run concurrently with each experiment. A Packard Fluorocount spectrofluorometer (Model#BF10000, Meridan, Conn.) set at 560 nm excitation and 590 nm emission was used for quantification of aggregate fluorescence and at 485 nm excitation/530 emission for monomer fluorescence.
Measuring mitochondrial membrane potential changes (ΔΨm)—JC-1 (Sigma, St. Louis, Mo.) has advantages over other cationic dyes in that it can selectively enter into mitochondria and reversibly change color from green to red as the membrane potential increases. In healthy cells with high mitochondrial membrane potential (ΔΨm), JC-1 spontaneously forms complexes known as J-aggregates with intense red fluorescence. […]

[2] = cited from earlier work

## CCCCC[C@H](O)CC(=O)CCc1ccc(O)c(OC)c1 [6-Gingerol]
[1]
  Monomer/Aggregate Ratio: 1.14

## COc1cc(/C=C/C(=O)CC(=O)/C=C/c2ccc(O)c(OC)c2)ccc1O [Curcumin]
[1]
  Monomer/Aggregate Ratio: 3.89

## O=[N+]([O-])c1ccc(O)c([N+](=O)[O-])c1 [DNP, 2,4-dinitrophenol]
[2]; 30 hypertensive patients
  Average fall in diastolic blood pressure: 12.6%
  Average fall in systolic blood pressure: 9.4%
[2]; approximately 5 mg/kg body weight, feeling of warmth and increased perspiration reported
  Dose generally well-tolerated: up to 0.5 g
[2]; daily dosing of 3-5 mg/kg, maintained for a minimum of ten weeks
  Gradual increase in metabolic rate (average): 40%
[2]; human, in vivo
  Dose producing profuse sweating, increased heart rate, respiration rate and excessive body temperature rises: Above 10 mg/kg
[2]; obese patients
  Average increase in metabolic rate for each dosage increment of 0.1 g: 11%
[2]; single doses of 3-5 mg/kg, within the first hour, maintained for 24 hours
  Increase in resting metabolic rate: 20-30%
[2]; therapeutic doses, normal patients
  Effect on blood pressure or heart rate: no effect on blood pressure or heart rate
[1]; 18.4 μg DNP/mL
  Potency of positive control (decrease of ΔΨm): 45%
[1]; 100 μM 2,4-dinitrophenol (18.4 μg DNP/mL), 95% CI=1.34-1.39, n=200, over the experimental period
  Mean M/A (monomer/aggregate ratio) of positive control: 1.36
[1]; 3T3-L1 adipocytes, 500, 100, 50, 10 or 5 μM for 60 min, FIG. 2
  Concentration at which monomer/aggregate ratio is significantly increased (p<0.05) relative to JC-1 negative controls: ≥ 50 µM
[1]; relative to negative JC-1 controls
  Change of ΔΨm in 3T3-L1 adipocytes (in words): dose-related decreased in ΔΨm

## CNCC(O)c1ccc(O)cc1 (centres unmarked) [Synephrine]
[1]
  Monomer/Aggregate Ratio: 1.06

## Oc1ccc(C=Cc2cc(O)cc(O)c2)cc1 [Resveratrol]
[1]
  Monomer/Aggregate Ratio: 1.48

## C[C@@H]1O[C@@H](OC[C@H]2O[C@@H](Oc3c(-c4ccc(O)c(O)c4)oc4cc(O)cc(O)c4c3=O)[C@H](O)[C@@H](O)[C@@H]2O)[C@H](O)[C@H](O)[C@H]1O [Rutin Powder, Rutin]
[1]
  Monomer/Aggregate Ratio: 1.37
